According to patent publication US20050065208A1, “Benzofuranes and their use in the treatment of atrial fibrillation” (priority 2001, published 2005):
Where two headings read alike, the source gives them in different places.

Key:
[1] = biological target: T1, IK(ATP), ATP-sensitive K-current (Homo sapiens, UniProt Q14654); set-up: key: Yes: The compound has been demonstrated to inhibit the particular current (reference within parenthesis).; No: The compound has been demonstrated to not inhibit the particular current (reference within parenthesis).; U: No data regarding interaction of the compound with the particular current has been found in the literature; conditions: Table 2, literature; cited from earlier work
T1 construct: electrophysiology technique applied to cardiomyocyte cultures; endogenous in cells; current induced with dinitrophenole
T1 sequence (Q14654 whole entry): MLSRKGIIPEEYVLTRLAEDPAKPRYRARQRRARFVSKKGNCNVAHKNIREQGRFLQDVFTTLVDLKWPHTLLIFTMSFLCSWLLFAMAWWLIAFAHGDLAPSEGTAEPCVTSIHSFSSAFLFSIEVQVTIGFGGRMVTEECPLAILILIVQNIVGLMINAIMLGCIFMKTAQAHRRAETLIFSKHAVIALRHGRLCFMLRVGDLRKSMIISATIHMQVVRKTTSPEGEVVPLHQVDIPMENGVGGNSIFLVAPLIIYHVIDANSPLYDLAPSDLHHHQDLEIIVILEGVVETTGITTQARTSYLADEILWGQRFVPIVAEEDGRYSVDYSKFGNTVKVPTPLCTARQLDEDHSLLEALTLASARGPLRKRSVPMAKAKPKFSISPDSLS
T1 sequence (O60706 whole entry partner): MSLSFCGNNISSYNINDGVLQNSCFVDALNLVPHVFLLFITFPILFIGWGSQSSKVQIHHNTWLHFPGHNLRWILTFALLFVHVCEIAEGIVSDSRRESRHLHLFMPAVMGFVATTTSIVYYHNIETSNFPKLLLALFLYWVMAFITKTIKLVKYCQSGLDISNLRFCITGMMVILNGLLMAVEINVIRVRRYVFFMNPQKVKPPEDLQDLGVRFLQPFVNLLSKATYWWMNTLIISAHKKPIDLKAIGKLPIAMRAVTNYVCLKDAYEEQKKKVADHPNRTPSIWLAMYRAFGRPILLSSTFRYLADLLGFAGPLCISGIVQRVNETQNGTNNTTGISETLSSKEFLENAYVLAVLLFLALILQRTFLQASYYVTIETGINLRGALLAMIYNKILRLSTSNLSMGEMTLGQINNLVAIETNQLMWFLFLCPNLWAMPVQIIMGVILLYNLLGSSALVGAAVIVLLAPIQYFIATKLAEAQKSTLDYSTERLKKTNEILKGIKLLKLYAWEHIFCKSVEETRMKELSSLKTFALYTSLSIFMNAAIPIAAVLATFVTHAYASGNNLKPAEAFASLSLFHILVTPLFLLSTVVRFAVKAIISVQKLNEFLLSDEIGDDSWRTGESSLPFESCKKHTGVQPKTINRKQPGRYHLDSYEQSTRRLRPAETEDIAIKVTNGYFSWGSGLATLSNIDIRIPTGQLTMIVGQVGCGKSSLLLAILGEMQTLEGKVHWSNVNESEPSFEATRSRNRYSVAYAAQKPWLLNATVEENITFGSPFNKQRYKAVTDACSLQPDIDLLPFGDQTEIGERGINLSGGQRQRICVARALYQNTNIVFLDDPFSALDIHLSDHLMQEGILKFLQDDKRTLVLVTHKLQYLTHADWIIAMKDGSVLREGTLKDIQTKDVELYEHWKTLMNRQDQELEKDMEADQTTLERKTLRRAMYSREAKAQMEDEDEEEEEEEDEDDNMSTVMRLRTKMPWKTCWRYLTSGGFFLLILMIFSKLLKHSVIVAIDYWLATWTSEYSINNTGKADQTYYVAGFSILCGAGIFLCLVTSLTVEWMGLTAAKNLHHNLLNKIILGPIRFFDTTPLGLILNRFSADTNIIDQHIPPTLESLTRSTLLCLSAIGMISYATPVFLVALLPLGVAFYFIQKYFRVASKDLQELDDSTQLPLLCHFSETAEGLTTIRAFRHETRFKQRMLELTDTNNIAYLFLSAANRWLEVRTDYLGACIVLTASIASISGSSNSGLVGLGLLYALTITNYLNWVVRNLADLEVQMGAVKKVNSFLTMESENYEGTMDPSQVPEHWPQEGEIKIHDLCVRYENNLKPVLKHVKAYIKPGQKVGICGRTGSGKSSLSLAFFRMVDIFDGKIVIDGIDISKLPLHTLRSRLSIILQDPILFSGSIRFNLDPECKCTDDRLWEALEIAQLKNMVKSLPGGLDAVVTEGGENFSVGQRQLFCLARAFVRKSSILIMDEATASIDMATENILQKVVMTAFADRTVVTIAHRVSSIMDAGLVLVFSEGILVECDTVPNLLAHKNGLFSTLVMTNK

[2] = tested on: triiodthyronine (T3)-signalling; assay: Antagonism of T3-signalling action in cells; assay type: cell-based; conditions: manuscript in preparation
[3] = biological target: T2, INa, depolarizing Na-current (Homo sapiens, UniProt Q14524); set-up: key: Yes: The compound has been demonstrated to inhibit the particular current (reference within parenthesis).; No: The compound has been demonstrated to not inhibit the particular current (reference within parenthesis).; U: No data regarding interaction of the compound with the particular current has been found in the literature; conditions: Table 2, literature; cited from earlier work
T2 sequence (Q14524 whole entry): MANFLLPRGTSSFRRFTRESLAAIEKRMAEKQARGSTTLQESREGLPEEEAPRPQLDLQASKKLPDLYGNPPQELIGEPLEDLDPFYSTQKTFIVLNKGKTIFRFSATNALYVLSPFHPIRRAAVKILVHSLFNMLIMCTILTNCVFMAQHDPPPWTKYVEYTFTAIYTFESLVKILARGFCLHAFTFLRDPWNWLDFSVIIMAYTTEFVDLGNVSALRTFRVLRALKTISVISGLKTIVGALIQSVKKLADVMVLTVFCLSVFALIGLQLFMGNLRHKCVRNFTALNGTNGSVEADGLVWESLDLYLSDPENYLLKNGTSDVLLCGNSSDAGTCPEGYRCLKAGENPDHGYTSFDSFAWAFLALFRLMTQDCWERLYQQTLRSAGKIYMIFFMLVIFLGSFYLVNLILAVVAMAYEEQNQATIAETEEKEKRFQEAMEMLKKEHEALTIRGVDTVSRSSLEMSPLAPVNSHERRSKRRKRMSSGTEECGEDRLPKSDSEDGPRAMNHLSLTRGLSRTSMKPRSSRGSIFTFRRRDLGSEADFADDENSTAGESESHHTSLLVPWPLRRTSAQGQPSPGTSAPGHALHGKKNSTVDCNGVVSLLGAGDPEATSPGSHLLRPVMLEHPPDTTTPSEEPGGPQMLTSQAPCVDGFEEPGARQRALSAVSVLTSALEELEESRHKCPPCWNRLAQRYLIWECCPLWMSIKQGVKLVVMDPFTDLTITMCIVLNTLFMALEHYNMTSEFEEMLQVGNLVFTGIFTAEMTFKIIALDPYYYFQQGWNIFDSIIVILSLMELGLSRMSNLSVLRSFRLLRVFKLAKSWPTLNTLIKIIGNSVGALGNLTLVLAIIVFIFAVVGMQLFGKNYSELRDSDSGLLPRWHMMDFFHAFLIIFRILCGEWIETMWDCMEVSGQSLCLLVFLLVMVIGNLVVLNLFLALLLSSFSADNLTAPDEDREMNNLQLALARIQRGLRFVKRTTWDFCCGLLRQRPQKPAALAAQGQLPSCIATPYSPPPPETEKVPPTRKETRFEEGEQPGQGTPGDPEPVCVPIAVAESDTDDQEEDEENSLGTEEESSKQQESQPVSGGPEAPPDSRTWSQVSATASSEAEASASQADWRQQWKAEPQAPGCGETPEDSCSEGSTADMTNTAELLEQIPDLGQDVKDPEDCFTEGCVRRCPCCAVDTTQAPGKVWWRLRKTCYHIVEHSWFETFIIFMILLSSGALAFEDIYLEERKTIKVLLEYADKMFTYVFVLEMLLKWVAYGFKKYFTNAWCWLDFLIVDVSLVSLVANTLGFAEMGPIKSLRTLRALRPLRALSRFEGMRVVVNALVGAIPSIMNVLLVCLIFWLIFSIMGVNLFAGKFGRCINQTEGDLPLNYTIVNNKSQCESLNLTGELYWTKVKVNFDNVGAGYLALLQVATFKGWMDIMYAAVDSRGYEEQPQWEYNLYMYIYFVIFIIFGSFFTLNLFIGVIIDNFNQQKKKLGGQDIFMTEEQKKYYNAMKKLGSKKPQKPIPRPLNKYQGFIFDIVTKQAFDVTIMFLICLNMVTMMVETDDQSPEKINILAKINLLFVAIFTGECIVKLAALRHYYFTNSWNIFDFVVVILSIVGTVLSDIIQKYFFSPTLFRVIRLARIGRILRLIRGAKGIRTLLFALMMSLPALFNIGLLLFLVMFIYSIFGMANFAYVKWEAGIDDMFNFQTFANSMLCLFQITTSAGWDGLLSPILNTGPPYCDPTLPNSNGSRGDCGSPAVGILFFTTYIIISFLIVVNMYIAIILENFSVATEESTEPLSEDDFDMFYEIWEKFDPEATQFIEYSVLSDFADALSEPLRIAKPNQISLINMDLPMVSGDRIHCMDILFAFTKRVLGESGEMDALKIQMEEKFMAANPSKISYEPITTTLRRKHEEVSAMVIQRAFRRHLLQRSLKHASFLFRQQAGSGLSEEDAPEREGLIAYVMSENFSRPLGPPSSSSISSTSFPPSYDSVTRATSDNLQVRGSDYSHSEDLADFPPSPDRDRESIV

[4] = biological target: T3, IK(Ado), adenosine activated K-current (Homo sapiens, UniProt P48544+P48549); set-up: key to Blocking activity on IK(Ado): Yes: The compound has been demonstrated to inhibit the particular current (reference within parenthesis).; No: The compound has been demonstrated to not inhibit the particular current (reference within parenthesis).; U: No data regarding interaction of the compound with the particular current has been found in the literature; conditions: cited from earlier work
T3 construct: electrophysiology technique applied to cardiomyocyte cultures; endogenous in cells
T3 sequence (P48549 1-501): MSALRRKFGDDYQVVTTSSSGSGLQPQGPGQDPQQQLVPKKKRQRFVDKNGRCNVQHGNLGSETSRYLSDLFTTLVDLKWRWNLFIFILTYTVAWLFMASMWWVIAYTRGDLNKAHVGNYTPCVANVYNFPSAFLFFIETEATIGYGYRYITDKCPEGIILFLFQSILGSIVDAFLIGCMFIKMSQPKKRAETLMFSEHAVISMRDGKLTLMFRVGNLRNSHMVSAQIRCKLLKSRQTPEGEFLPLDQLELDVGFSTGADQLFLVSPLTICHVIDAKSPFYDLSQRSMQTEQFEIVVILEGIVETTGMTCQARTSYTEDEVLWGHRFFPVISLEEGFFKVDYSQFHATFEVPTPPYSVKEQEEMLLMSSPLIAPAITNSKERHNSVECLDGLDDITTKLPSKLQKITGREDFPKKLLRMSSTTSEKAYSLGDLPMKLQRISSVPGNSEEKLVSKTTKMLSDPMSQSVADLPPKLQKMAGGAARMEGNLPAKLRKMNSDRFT
T3 sequence (P48544 1-419): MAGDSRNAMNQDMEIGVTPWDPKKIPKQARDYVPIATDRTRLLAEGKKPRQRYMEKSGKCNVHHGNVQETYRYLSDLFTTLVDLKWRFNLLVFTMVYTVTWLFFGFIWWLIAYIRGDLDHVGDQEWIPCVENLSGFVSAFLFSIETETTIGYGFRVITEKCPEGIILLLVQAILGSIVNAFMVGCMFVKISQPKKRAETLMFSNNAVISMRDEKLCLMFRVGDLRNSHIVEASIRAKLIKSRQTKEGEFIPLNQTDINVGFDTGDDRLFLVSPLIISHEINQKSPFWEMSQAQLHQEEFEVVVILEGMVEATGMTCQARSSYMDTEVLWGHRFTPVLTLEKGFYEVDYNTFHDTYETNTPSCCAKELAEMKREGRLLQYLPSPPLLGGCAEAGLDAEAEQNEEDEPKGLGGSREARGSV

[5] = biological target: T4, IKs, slow component of the delayed rectifier K-current (Homo sapiens, UniProt P51787); set-up: key: Yes: The compound has been demonstrated to inhibit the particular current (reference within parenthesis).; No: The compound has been demonstrated to not inhibit the particular current (reference within parenthesis).; U: No data regarding interaction of the compound with the particular current has been found in the literature; conditions: Table 2, literature; cited from earlier work
[6] = tested on: IK1, inward rectifier K-current; set-up: key: Yes: The compound has been demonstrated to inhibit the particular current (reference within parenthesis).; No: The compound has been demonstrated to not inhibit the particular current (reference within parenthesis).; U: No data regarding interaction of the compound with the particular current has been found in the literature; conditions: Table 2, literature; cited from earlier work
[7] = biological target: T5, IK(ACh), AcetylCholine activated K-current (Homo sapiens, UniProt P48544+P48549); set-up: key to Blocking activity on IK(ACh): Yes: The compound has been demonstrated to inhibit the particular current (reference within parenthesis).; No: The compound has been demonstrated to not inhibit the particular current (reference within parenthesis).; U: No data regarding interaction of the compound with the particular current has been found in the literature; conditions: cited from earlier work
T5 construct: electrophysiology technique applied to cardiomyocyte cultures; endogenous in cells
T5 sequence (P48549 1-501): T3 sequence (P48549 1-501)
T5 sequence (P48544 1-419): T3 sequence (P48544 1-419)

[8] = biological target: T5, IK(ACh), AcetylCholine activated K-current; assay: Voltage clamp on cardiomyocyte cultures: inhibition of K-current induced by ACh or carbachol; assay type: cell-based; set-up: key to Blocking activity on IK(ACh): Yes: The compound has been demonstrated to inhibit the particular current (reference within parenthesis).; No: The compound has been demonstrated to not inhibit the particular current (reference within parenthesis).; U: No data regarding interaction of the compound with the particular current has been found in the literature; conditions: for Blocking activity on IK(ACh): Table 2, own voltage clamp data; for inhibition at 50 µM: read-out: Inhibition of IK (ACh) (Induced by ACh or Carbachol), % Inh
From the text: (§1) In the present invention acute and chronic effects of various compounds have been investigated by using electrophysiology technique applied to cardiomyocyte cultures.
(§2) The inhibitory effects occur within seconds after induction of the current with ACh, Ado or dinitrophenole (DNP reduces intracellular ATP). The acute inhibitory effects caused by the compounds of the present invention on these K-currents in cardiac muscle tissue had not previously been discovered. The reasons for this include the fact that these ligand activated K-currents (IK(Ado), IK(ACh) and IK(ATP)) are preferentially active in the atrial cardiomyocytes (Workman A J et al. Cardiovasc Res 1999 September;43(4):974-84; Koumi S-I, and Wasserstorm A. American Journal of Physiology 266[35], H1812-H1821. 1994), while previous studies have been carried out with tissue from cardiac ventricles. Furthermore, IK(Ado) and IK(ACh) must first be induced via the M2 or A1 receptor (with ACh and Ado respectively) before any inhibition can be observed. Without any agonist at the extracellular site of the membrane these ligand-gated channels probably have only minor roles in shaping repolarization but, when activated by extracellular acetylcholine or adenosine, they can substantially shorten action potential duration in the atrium (Tristani-Firouzi M et al. Am J Med 2001 January; 110(1):50-9).
(§3) The following Table 1 illustrates the potency (IC50-values) of compounds of formulae I and II compared with other anti-arrhythmic drugs to inhibit the transmembrane currents IK(Ado) and IK(ACh) after stimulation of the currents with Adenosine or Acetylcholine (or Carbachol).

[9] = biological target: T4, IKs, slow component of the delayed rectifier K-current; assay: Voltage clamp: slow component of the delayed rectifier K-current; assay type: cell-based; set-up: key: Yes: The compound has been demonstrated to inhibit the particular current (reference within parenthesis).; No: The compound has been demonstrated to not inhibit the particular current (reference within parenthesis).; U: No data regarding interaction of the compound with the particular current has been found in the literature; conditions: Table 2, own voltage clamp data
From the text: (§4) Results from voltage clamp experiments with compounds of the invention on other ion-currents than IK(Ado), IK(ACh) and IK(ATP) are included in Table 2.

[10] = tested on: Ito, transient outward K-current; assay: Voltage clamp: transient outward K-current; assay type: cell-based; set-up: key: Yes: The compound has been demonstrated to inhibit the particular current (reference within parenthesis).; No: The compound has been demonstrated to not inhibit the particular current (reference within parenthesis).; U: No data regarding interaction of the compound with the particular current has been found in the literature; conditions: Table 2, own voltage clamp data
From the text: as §4

[11] = tested on: IK1, inward rectifier K-current; assay: Voltage clamp: inward rectifier K-current; assay type: cell-based; set-up: key: Yes: The compound has been demonstrated to inhibit the particular current (reference within parenthesis).; No: The compound has been demonstrated to not inhibit the particular current (reference within parenthesis).; U: No data regarding interaction of the compound with the particular current has been found in the literature; conditions: Table 2, own voltage clamp data
From the text: as §4

[12] = biological target: T2, INa, depolarizing Na-current; assay: Voltage clamp: depolarizing Na-current; assay type: cell-based; set-up: key: Yes: The compound has been demonstrated to inhibit the particular current (reference within parenthesis).; No: The compound has been demonstrated to not inhibit the particular current (reference within parenthesis).; U: No data regarding interaction of the compound with the particular current has been found in the literature; conditions: Table 2, own voltage clamp data
From the text: as §4

[13] = biological target: T1, IK(ATP), ATP-sensitive K-current; assay: Voltage clamp on cardiomyocyte cultures: inhibition of ATP-sensitive K-current (induced with DNP); assay type: cell-based; set-up: key: Yes: The compound has been demonstrated to inhibit the particular current (reference within parenthesis).; No: The compound has been demonstrated to not inhibit the particular current (reference within parenthesis).; U: No data regarding interaction of the compound with the particular current has been found in the literature; conditions: Table 2, own voltage clamp data
From the text: as §1, §2

[14] = biological target: T3, IK(Ado), adenosine activated K-current; assay: Voltage clamp on cardiomyocyte cultures: inhibition of adenosine-induced K-current; assay type: cell-based; set-up: key to Blocking activity on IK(Ado): Yes: The compound has been demonstrated to inhibit the particular current (reference within parenthesis).; No: The compound has been demonstrated to not inhibit the particular current (reference within parenthesis).; U: No data regarding interaction of the compound with the particular current has been found in the literature; conditions: for Blocking activity on IK(Ado): Table 2, own voltage clamp data; for inhibition at 50 µM: read-out: Inhibition of IK (Ado) Induced by Adenosine, % Inh
From the text: as §1, §2, §3

| Blocking activity on IK(ACh) [8] | inhibition at 50 µM [8] [%] | Blocking activity on IKs [9] | Blocking activity on INa [12] | Blocking activity on IK(ATP) [13] | Blocking activity on IK(Ado) [14] | inhibition at 50 µM [14] [%] | SMILES | Blocking activity on IK(ATP) [1] | Antagonism of triiodthyronine (T3)-signalling action in cells [2] | Blocking activity on INa [3] | Blocking activity on IK(Ado) ([4]; Table 2, literature) | Block of ligand-gated current IK(Ado), in words ([4]; Watanabe et al.) | IC50 ([4]; current induced by adenosine, literature value, read-out: Inhibition of IK (Ado) Induced by Adenosine (IC50)) [nM] | Blocking activity on IKs [5] | Blocking activity on IK1 [6] | Blocking activity on IK(ACh) ([7]; Table 2, literature) | Block of ligand-gated current IK(ACh), in words ([7]; Watanabe et al.) | IC50 ([7]; current induced by ACh or carbachol, literature value, read-out: Inhibition of IK (ACh) (Induced by ACh or Carbachol) (IC50)) [nM] | Blocking activity on Ito [10] | Blocking activity on IK1 [11] |
| --- | --- | --- | --- | --- | --- | --- | --- | --- | --- | --- | --- | --- | --- | --- | --- | --- | --- | --- | --- | --- |
|  |  |  |  |  |  |  | CCCCc1oc2ccccc2c1C(=O)c1cc(I)c(OCCN(CC)CC)c(I)c1 [Amiodarone] | Yes | antagonize | Yes | Yes | does block | 2000 | Yes | Yes | Yes | does block | 2000 |  |  |
| Yes | 100 | No | No | Yes | Yes | 100 | Cc1oc2ccccc2c1Cc1cc(C(C)C)c(OCC(=O)O)c(C(C)C)c1 [Example E4, 2-methyl-3-(3,5-diisopropyl-4-carboxymethoxybenzyl)benzofuran] |  |  |  |  |  |  |  |  |  |  |  | No | No |
| Yes | 100 | No | No | Yes | Yes | 100 | Cc1oc2ccccc2c1Cc1cc(I)c(OCC(=O)O)c(I)c1 [Example E6, 2-methyl-3-(3,5-diiodo-4-carboxymethoxy-benzyl)benzofuran] |  |  |  |  |  |  |  |  |  |  |  | No | No |
